Source: US7148204B2, “Antisense modulation of bcl-x expression” (Isis Pharmaceuticala, Inc., priority 1998, dated 2006)

Columns and labels:
[1] = system: human bcl-x mRNA; assay: Northern blot analysis of bcl-x mRNA levels in A549 cells; type: cell-based
Procedure: Eighteen hours after antisense treatment, cell monolayers were washed twice with cold PBS and lysed in 1 mL RNAZOL™ (TEL-TEST “B” Inc., Friendswood, Tex.). Total RNA was prepared following manufacturer's recommended protocols. Twenty micrograms of total RNA was fractionated by electrophoresis through 1.2% agarose gels containing 1.1% formaldehyde using a MOPS buffer system (AMRESCO, Inc. Solon, Ohio). RNA was transferred from the gel to HYBOND™-N+ nylon membranes (Amersham Pharmacia Biotech, Piscataway, N.J.) by overnight capillary transfer using a Northern/Southern Transfer buffer system (TEL-TEST “B” Inc., Friendswood, Tex.). RNA transfer was confirmed by UV visualization. Membranes were fixed by UV cross-linking using a STRATALINKER™ UV Crosslinker 2400 (Stratagene, Inc, La Jolla, Calif.).
Membranes were probed using QUICKHYB™ hybridization solution (Stratagene, La Jolla, Calif.) using manufacturer's recommendations for stringent conditions with an 822-base pair bcl-x specific probe prepared by PCR from bases 33–855 of human bcl-xl sequence (Boise et al., 1993, Cell 74:597–608; GenBank accession no. L20121). To normalize for variations in loading and transfer efficiency membranes were stripped and probed for glyceraldehyde-3-phosphate dehydrogenase (GAPDH) RNA (Clontech, Palo Alto, Calif.). Hybridized membranes were visualized and quantitated using a PHOSPHORIMAGER™ and IMAGEQUANT™ Software V3.3 (Molecular Dynamics, Sunnyvale, Calif.). Data was normalized to GAPDH levels in untreated controls.
Oligonucleotides were tested by Northern blot analysis as described in Example 14. Oligonucleotides were tested in A549 cells at a concentration of 400 nM. The results are Table 2:
Oligonucleotides were tested by Northern blot analysis as described in Example 14. Chimeric oligonucleotides were in A549 cells at a concentration of 200 nM. Where present, “N.D.” indicates “not determined”.

[2] = system: bcl-x; assay: bcl-x protein in SEM-K2 cells by flow cytometry; type: cell-based, human; settings: 10 μM without cationic lipid, 48 hours after initial treatment
Procedure: SEM-K2 is a human cell line derived from a patient suffering from a t(4;11) acute lymphoblastic leukemia. Pocock, C. F. E. et al., Br. J. Haematol. (1995), 90(4), 855–67. SEM-K2 cells in exponential phase of growth were maintained in […] medium (Life Technologies, Inc., Gaithersburg, Md.) supplemented with 10% fetal bovine serum, 2 mM glutamine and penicillin/streptomycin, at 37°C. in 5%CO2/95% air. Cells were transferred in 1 mL volumes at approximately 1–5×10^6 cells/ml to 24-well plates. After one hour, 10 μM of ISIS 15999 or scrambled control 15691 ([…]; SEQ ID No. 41) was added to wells, without cationic lipid. At 24 hours and 48 hours repeat doses of 5 μM oligonucleotide were added. […]
For Western blot and flow cytometric protein analysis, cells were washed once in phosphate-buffered saline and pelleted by centrifugation at 1200 rpm for 5 minutes, and resuspended in cell lysis buffer (5M NaCl, 0.1 M HEPES, 500 mM sucrose, 0.5M EDTA, 100 mM spermine, 1 mg/ml aprotinin, 10% Triton X-100) for 15 minutes on ice. Total protein was quantified spectrophotometrically (BioRad) and 100 μg lysate was loaded onto 15% polyacrylamide gels and run at 200V for 45 minutes. […] Cells were analyzed using a FACScalibur™ running Cellquest software (Becton Dickinson, Franklin Lakes, N.J.). […] Fluorescence detector 1 was used with logarithmic amplification for detection of FITC fluorescence. […]

[3] = system: bcl-2 protein; assay: Immunoblot of bcl-2 protein in CEM cells; type: cell-based, human; settings: even at the highest concentration
Procedure: (§1) Postnuclear detergent lysates were prepared as described by Reed et al. (Cancer Res., 1991, 51, 6529–6538), and the protein concentration was determined using a Bradford method protein assay kit (Bio-Rad, Hercules, Calif.). Protein (20 μg) was loaded in each lane, followed by electrophoresis on a 12% sodium dodecyl sulfate-polyacrylamide gel, followed by immunoblotting (Winston et al., 1993). The primary antibody was a 0.4 μg/ml dilution of the mouse monoclonal anti-human bcl-2 (clone 124, Dako, Carpinteria, Calif.), a 4.0 μg/ml dilution of the rabbit polyclonal anti-human bcl-xs/l (Dako), or a 0.3 μg/ml dilution of rabbit polyclonal anti-human Bax (N-20, Santa Cruz Biotechnology, Santa Cruz, Calif.). For development and STORM fluorescent imaging, the secondary antibody was peroxidase-conjugated sheep anti-mouse or donkey anti-rabbit (Amersham, Little Chalfort, UK). Chemiluminescence imaging and quantification were preformed using the STORM instrument and ImageQuant software (Molecular Dynamics, Sunnyvale, Calif.).

[4] = system: bcl-xl protein; assay: Immunoblot of bcl-xl protein in CEM cells; type: cell-based, human
Procedure: as §1

[5] = system: CEM-C7 cells; assay: Viable cell counts of CEM cells (propidium iodide exclusion, flow cytometry); type: cell-based, human; settings: for viability by propidium iodide exclusion: 20 μM electroporation
Procedure: CEM-C7 cells (Norman et al., 1978), a glucocortocoid sensitive clone of the human T-lymphoblastic cell line CEM, were cultured between 5×10^4 to 10^6 cells/ml in RPMI 1640 medium containing 10% heat-inactivated fetal bovine serum (FBS), streptomycin, penicillin G, 15 mM HEPES, 2 mM sodium pyruvate, at 37° C. in a humid, 5% CO2 incubator. Viable cell counts were performed by propidium iodide staining and flow cytometry.
CEM-C7 cells were electroporated with the indicated concentrations of oligonucleotides at 150 volts, 1,700 microFaraday (μF), and a resistance setting of 5 with a BTX electroporation apparatus (Genetronics, San Diego, Calif.) in 2-mm gap cuvettes containing 5×10^6 cells in 200 μl RPMI plus 20% FBS on ice. Cells were left on ice for 10 minutes, then plated in 5 ml complete media.

## TCCCGGTTGCTCTGAGACAT (5-10-5 2'-MOE gapmer, phosphorothioate, further chemistry not given here) [ISIS 15999]
[1]; 25 nM (lowest dose tested)
  reduction of bcl-x mRNA levels: approximately 70%
[1]; 50 nM to 200 nM
  inhibition of bcl-x mRNA: greater than 90%
[1]; 200 nM
  bcl-x mRNA at the highest dose: nearly complete ablation
[1]; dose-response, Northern blot
  IC50: < 25 nM
[2]
  reduction in bcl-x (median fluorescence intensity): 50%
[3]
  bcl-2 protein levels: did not decrease
[4]
  level of bcl-xl protein: dose dependent decrease
[5]; CEM cells, 48 hours
  viability by propidium iodide exclusion: 33%
[5]; CEM cells, 72 hours
  viability by propidium iodide exclusion: 46%
[5]; CEM cells, highest concentration, 20 hours after electroporation
  cell count less than control antisense treated cells: 40%
[5]; twenty hours after electroporation
  viability of CEM cells: dose dependent decrease
